# Reference: patent US20050282840A1, “Methods of modulating neurotrophin-mediated activity” (PainCeptor Pharma Corporation, priority 2004, published 2005)
# Like-named read-outs stand apart in the source and are kept apart here.
# Legend:
# [1] = target: T1, p75^NTR receptors (PC12 cells) (Rattus norvegicus, UniProt P07174); assay: Basic screening assay: binding of 125I-BDNF to PC12 cells; details: read-out: BDNF Activity % Maximal Binding
# T1 construct: endogenous in cells; host or cells: PC12 cells
# T1 sequence (P07174 30-425): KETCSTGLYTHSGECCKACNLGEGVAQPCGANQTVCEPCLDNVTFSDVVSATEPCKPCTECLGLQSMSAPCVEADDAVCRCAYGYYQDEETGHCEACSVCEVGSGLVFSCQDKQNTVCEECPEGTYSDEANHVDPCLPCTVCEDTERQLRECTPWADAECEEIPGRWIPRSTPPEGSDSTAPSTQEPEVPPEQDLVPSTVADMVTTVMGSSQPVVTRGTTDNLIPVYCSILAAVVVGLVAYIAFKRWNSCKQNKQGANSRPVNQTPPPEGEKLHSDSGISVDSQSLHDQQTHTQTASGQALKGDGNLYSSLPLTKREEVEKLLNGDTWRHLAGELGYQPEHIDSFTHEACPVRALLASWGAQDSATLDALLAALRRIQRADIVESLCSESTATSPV
# T1 sequence (P23560 129-247 partner): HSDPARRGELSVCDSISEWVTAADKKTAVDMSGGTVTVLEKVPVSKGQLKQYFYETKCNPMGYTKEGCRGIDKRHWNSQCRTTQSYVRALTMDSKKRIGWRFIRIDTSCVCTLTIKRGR
# Method: (§1) The compounds were screened for effects on binding of ^125I-BDNF or ^125I-NGF to PC12 cells (p75^NTR receptors), and those that inhibited binding were further tested to determine the EC50 for this inhibition.
# (§2) PC12 cells were cultured and prepared for binding assays as described in Example 1.
# (§3) Lypophilized Peprotech human recombinant BDNF (Cedarlane Laboratories, Toronto, Canada, cat. # PE 450-02-10) was reconstituted under sterile conditions to 3.5 μM in sterile HKR/1%BSA, and either used immediately or stored in aliquots of 20 μl at −80° C. Immediately prior to use, a 15 nM (30×) solution of ^125I-BDNF or ^125I-NGF was prepared in HKR buffer, and was used at 0.5 nM final concentration.
# (§4) Test Compounds were dissolved to 10 mM in DMSO, and those that were not initially soluble were warmed to 40-50° C. and vortexed. Those compounds that were still not in solution were reported as such. Compounds were then stored in this form at −20° C. until use. Immediately before experiments, 100 mM compounds were diluted to 10 mM in DMSO (1:10), followed by a further dilution to 1 mM (1:10) with distilled water, and a further dilution to 500 μM (1:1) with HKR.
# (§5) Assays to determine maximum binding (Bmax), non-specific binding (NSB), and binding in the presence of each test compound (e.g., x, y) were performed at least in duplicate. In a total volume of 300 μL, 4×10^6 PC12 cells were incubated, rotating for 2 h at 4° C. with the following:
# (§6) At the conclusion of the binding reaction, 100 μL aliquots of the reaction mixtures were carefully layered over 200 μL of a 10% glycerol solution in a 0.4 mL tube, and subjected to centrifugation in a microcentrifuge for 2 minutes at half maximum speed. The cell pellets containing the bound ^125I-BDNF or ^125I-NGF were then measured using a gamma counter. The mean values of the replicates were then calculated to determine the value for maximum binding (Bmax) and nonspecific binding (NSB), and binding in the presence of test compound at 50 μM (Bx). Specific binding (SB) was measured by subtracting the NSB from the Bmax.
# [2] = system: p75^NTR receptors (PC12 cells); assay: Basic screening assay: binding of 125I-NGF to PC12 cells; details: test compound 50 μM, 0.5 nM 125I-NGF, PC12 cells, 2 h at 4° C., specific binding as percent of control
# Method: as §1, §2
# Lyophilized Serotec mouse 2.5S NGF (Cedarlane Laboratories, Toronto, Canada, cat. # PMP 04Z) was reconstituted under sterile conditions to 1 mg/mL (38 μM) in sterile 0.2% acetic acid, and 100 μL or 50 μL aliquots were stored frozen at −80° C.
# as §3, §4, §5
# as §6, with “Bmax. Specific binding in the presence of the test compound (SBx) was determined by subtracting the NSB from the Bx for each test compound; and each SBx was divided by SB and multiplied by 100 to give the specific binding in the presence of the compound as a percent of control specific binding.” for “Bmax.”
# [3] = Table 4, test compound 50 μM, 0.5 nM 125I-BDNF, PC12 cells, 2 h at 4° C., specific binding as percent of control
# [4] = Table 1, test compound 50 μM, 0.5 nM 125I-BDNF, PC12 cells, 2 h at 4° C., specific binding as percent of control
# [5] = Table 2, test compound 50 μM, 0.5 nM 125I-BDNF, PC12 cells, 2 h at 4° C., specific binding as percent of control
Structure (SMILES),"activity at 50 µM [1, 3] [%]",NGF Activity % Maximal Binding ([2]; Table 4),NGF Activity % Maximal Binding ([2]; Table 1),also measured
"O=C1NC(=S)N/C1=C/c1ccc(-c2ccc(Cl)c([N+](=O)[O-])c2)o1 [Compound 93, 5-[5-(4-Chloro-3-nitrophenyl)furan-2-ylmethylene]-2-thioxo-imidazolidin-4-one]",> 50,* (50 < *),,
"O=C1NC(=O)/C(=C\c2ccc(-c3ccc([N+](=O)[O-])cc3Cl)o2)S1 [Compound 33, 5-[5-(2-Chloro-4-nitrophenyl)furan-2-ylmethylene]-thiazolidine-2,4-dione]",,,* (50 < *),"activity at 50 µM [1, 4]: 10 to 20%"
"O=C1C(=Cc2ccc(-c3cccc([N+](=O)[O-])c3)o2)SC(=S)N1CCS(=O)(=O)O [Compound 143, 2-{5-[5-(3-Nitrophenyl)furan-2-ylmethylene]-4-oxo-2-thioxo-thiazolidin-3-yl}-ethanesulfonic acid]",> 50,* (50 < *),,
"CCOC(=O)CN1C(=O)S/C(=C\c2ccc(-c3ccc(Cl)c(C(=O)O)c3)o2)C1=O [Compound 115, 2-Chloro-5-[5-(3-ethoxycarbonylmethyl-2,4-dioxo-thiazolidin-5-ylidenemethyl)furan-2-yl]benzoic acid]",> 50,* (50 < *),,
"CN1C(=O)S/C(=C/c2ccc(-c3ccc(C(=O)O)c(Cl)c3)o2)C1=O [Compound 80, 2-Chloro-4-[5-(3-methyl-2,4-dioxo-thiazolidin-5-ylidenemethyl)furan-2-yl]benzoic acid]",,,,"activity at 50 µM [1, 5]: 10 to 20%; NGF Activity % Maximal Binding ([2]; Table 2): X (40 < X < 50)"
"CN1C(=O)NC(=O)C(=Cc2ccc(-c3ccc([N+](=O)[O-])cc3)o2)C1=O [Compound 39, 1-Methyl-5-[5-(4-nitrophenyl)furan-2-ylmethylene]-pyrimidine-2,4,6-trione]",,,* (50 < *),activity at 50 µM [1]: 20 to 30%
"O=C1NC(=S)N/C1=C\c1ccc(-c2cccc([N+](=O)[O-])c2)o1 [Compound 89, 5-[5-(3-Nitrophenyl)furan-2-ylmethylene]-2-thioxo-imidazolidin-4-one]",> 50,* (50 < *),,
"COc1cc([N+](=O)[O-])ccc1-c1ccc(/C=C2/NC(=O)N(Cc3ccccc3F)C2=O)o1 [Compound 133, 3-(2-Fluorobenzyl)-5-[5-(2-methoxy-4-nitrophenyl)furan-2-ylmethylene]-imidazolidine-2,4-dione]",> 50,* (50 < *),,
"Cc1ccc(-c2ccc(C=C3C(=O)NC(=S)NC3=O)o2)cc1[N+](=O)[O-] [Compound 106, 5-[5-(4-Methyl-3-nitrophenyl)furan-2-ylmethylene]-2-thioxo-dihydro-pyrimidine-4,6-dione]",,* (50 < *),,activity at 50 µM [1]: > 50%
"O=C(O)c1ccc(-c2ccc(/C=C3/NC(=O)N(Cc4ccccc4F)C3=O)o2)cc1Cl [Compound 27, 2-Chloro-4-{5-[1-(2-fluorobenzyl)-2,5-dioxo-imidazolidin-4-ylidenemethyl]furan-2-yl}benzoic acid]",,,* (50 < *),"activity at 50 µM [1, 4]: 0 to 10%"
"COc1ccc(-c2ccc(C=C3C(=O)NC(=S)NC3=O)o2)cc1[N+](=O)[O-] [Compound 8, 5-[5-(4-Methoxy-3-nitrophenyl)furan-2-ylmethylene]-2-thioxo-dihydro-pyrimidine-4,6-dione]",,,* (50 < *),activity at 50 µM [1]: 0 to 10%
"COC(=O)c1ccc(-c2ccc(C=C3C(=O)NC(=S)NC3=O)o2)cc1 [Compound 19, 4-[5-(4,6-Dioxo-2-thioxo-tetrahydro-pyrimidin-5-ylidenemethyl)furan-2-yl]benzoic acid methyl ester]",,,* (50 < *),activity at 50 µM [1]: 0 to 10%
"COC(=O)c1cc(-c2ccc(/C=C3/NC(=S)NC3=O)o2)ccc1Cl [Compound 91, 2-Chloro-5-[5-(5-oxo-2-thioxo-imidazolidin-4-ylidenemethyl)furan-2-yl]benzoic acid methyl ester]",> 50,* (50 < *),,
"Cc1cc([N+](=O)[O-])ccc1-c1ccc(C=C2SC(=O)NC2=O)o1 [Compound 92, 5-[5-(2-Methyl-4-nitrophenyl)furan-2-ylmethylene]-thiazolidine-2,4-dione]",> 50,* (50 < *),,
"Cc1cc([N+](=O)[O-])ccc1-c1ccc(C=C2SC(=S)NC2=O)o1 [Compound 7, 5-[5-(2-Methyl-4-nitrophenyl)furan-2-ylmethylene]-2-thioxo-thiazolidin-4-one]",,,* (50 < *),"activity at 50 µM [1, 4]: 0 to 10%"
"O=C1NC(=S)N/C1=C/c1ccc(-c2ccc(Cl)c(C(=O)O)c2)o1 [Compound 85, 2-Chloro-5-[5-(5-oxo-2-thioxo-imidazolidin-4-ylidenemethyl)furan-2-yl]benzoic_acid]",,,,"activity at 50 µM ([1]; Table 3, test compound 50 μM, 0.5 nM 125I-BDNF, PC12 cells, 2 h at 4° C., specific binding as percent of control): > 50%; NGF Activity % Maximal Binding ([2]; Table 3): X (40 < X < 50)"
"COc1cc([N+](=O)[O-])ccc1-c1ccc(/C=C2/SC(=S)N(C)C2=O)o1 [Compound 60, 5-[5-(2-Methoxy-4-nitrophenyl)furan-2-ylmethylene]-3-methyl-2-thioxo-thiazolidin-4-one]",,,* (50 < *),"activity at 50 µM [1, 4]: 40 to 50%"
"O=C1NC(=O)C(=Cc2ccc(-c3cccc([N+](=O)[O-])c3)o2)S1 [Compound 87, 5-[5-(3-Nitrophenyl)furan-2-ylmethylene]-thiazolidine-2,4-dione]",> 50,* (50 < *),,
"O=C(O)c1ccc(Cl)c(-c2ccc(/C=C3/NC(=O)N(Cc4ccccc4F)C3=O)o2)c1 [Compound 72, 4-Chloro-3-{5-[1-(2-fluorobenzyl)-2,5-dioxo-imidazolidin-4-ylidenemethyl]furan-2-yl}benzoic acid]",,,,"activity at 50 µM [1, 5]: 0 to 10%; NGF Activity % Maximal Binding ([2]; Table 2): X (40 < X < 50)"
"N=C1NC(=O)C(=Cc2ccc(-c3ccc([N+](=O)[O-])cc3Br)o2)S1 [Compound 103, 5-[5-(2-Bromo-4-nitrophenyl)furan-2-ylmethylene]-2-imino-thiazolidin-4-one]",> 50,* (50 < *),,
